Each structure is given as a SMILES string.

The term EC50 denotes the concentration giving half of the maximal effect.

The assay deals with phospho-ERK in melanoma derived WM-266-4 cells. Kind of assay: Mechanistic cellular assay for Raf kinase activity (phospho-ERK, Bio-Plex). It is filed as cell-based. The conditions noted are these: Homo sapiens, treated 1-2 hr at 37° C., serum free medium, read-out: pERK EC50. The text has this: (2) Mechanistic Cellular Assay for Raf Kinase Activity
The following method was utilized for quantifying the amount of phospho-ERK in melanoma derived WM-266-4 cells (one allele each of wild type BRaf and mutant BRaf (V600D) as an indicator of Raf kinase activity in cells treated with various kinase inhibitors.
(1) Detached adhered WM-266-4 cells from flask using 0.25% Trypsin. Resuspended cells in growth media (90% RPMI 1640, 10% FBS) and determine cell density.
(2) Seeded cells @ 10,000 cells/well in 96-well (flat bottom) tissue culture plates (36,000 cells/cm^2). Added growth media to a final volume of 200 uL/well and incubated overnight at 37° C.
(1) Prepared compound dilutions (1000× in DMSO) as follows. Starting with a stock of 5 mM compound in DMSO, diluted serially 3-fold in DMSO for a total of eight concentrations (5 mM, 1.67 mM, 0.556 mM, 0.185 mM, 0.062 mM, 0.021 mM, 0.007 mM, 0.002 mM).
(2) Prepared compound-containing media by adding 1 mL treatment media (100% RPMI 1640 without FBS) to 1 μL of compound dilution (from step 3).
(3) Removed plates (from step 2) from incubator. Aspirated media and replace with 150 μL compound-containing media. Incubate for 1-2 hr at 37° C.
(4) Removed plates (from step 5) from incubator and treated each as follows: aspirated compound-containing media and replaced with 300 μL ice-cold 1×PBS, aspirated PBS and replaced with 45 μL lysis buffer (Biorad Bio-Plex lysis buffer containing 0.4% v/v lysis buff. Factor 1, 0.2% v/v lysis buff. Factor 2, and PMSF to 2 mM final concentration), and then placed plate on ice until all plates were treated.
(5) After all plates were processed (step 6), placed plates on an orbital shaker and shook at room temperature for at least 15 min.
(6) Finally, removed plates from shaker, and transfered 40 μL/well of lysate from each to new corresponding 96-well V-bottom plates. At this point, samples may be frozen and stored @−80 C.°.
(1) Thaw (if necessary) plates (from step 8) and added 40 μL of Phospho-Protein Assay Buffer to each 40 μL lysate for a 1:1 dilution.
(2) Prepared phospho-ERK1,2 Bioplex beads by diluting 1:50 with Bioplex Wash Buffer (mixing 49 μL Wash Buffer with 1 μL of phospho-ERK1,2 Bioplex beads for each sample to be analyzed). Protected from light by wrapping tube in aluminum foil and kept at room temperature.
(3) Prepared Filter Plate by adding 100 μL/well Bioplex Wash Buffer and removed by vacuum filtration.
(4) Add 50 μL of bead solution (from step 10) to each well of a prepared Filter Plate (from step 11) and vacuum filter. Wash/filter 2× with 100 μL/well Wash Buffer.
(5) Added 50 μL of each lysate to appropriate well of the Filter Plate (from step 12). For this and all subsequent plate incubation steps, placed plate on an inverted plate cover (reduces background), and wrapped in aluminum foil (to protect from light). Shook overnight at room temperature. Included positive (control lysate) and negative (lysis buffer) controls.
(1) Prepared detection antibody (phospho-ERK1,2 Ab) by diluting 1:25 with Detection Antibody Dilution Buffer Buffer (mixing 24 μL Detection Antibody Dilution Buffer with 1 μL of phospho-ERK1,2 Ab for each sample to be analyzed).
(2) Removed plate (from step 13) from shaker and vacuum filter. Washed/filter plate 3× with 100 μL/well Wash Buffer. Added 25 μL of diluted antibody to each well. Incubated on shaker at RT for 30-45 min.
(3) Prepared streptavidin-PE by diluting 1:100 with Wash Buffer (mixing 49.5 μL Wash Buffer with 0.5 μL of 100× streptavidin-PE for each sample to be analyzed). Protected from light.
(4) Removed plate (from step 15) from shaker and vacuum filter. Washed/filter plate 3× with 100 μL/well Wash Buffer. Add 50 μL of diluted streptavidin-PE solution (from step 16) to each sample well. Incubated on shaker for 10-20 min.
(5) Removed plate from shaker and vacuum filter. Wash/filter plate 3× with 100 μL/well Bead Resuspension Buffer. After last wash resuspended beads in 125 μL Bead Resuspension Buffer. […]
With `CC(NC(=O)c1cc2c(cn1)ncn2C)c1cnc(Nc2cnc(C(C)(C)C)nc2)s1` (stereo not shown) [Example 240], the concentration giving a half-maximal response (EC50) was ≤ 100 nM.

As for `CC(NC(=O)c1cc2c(cn1)ncn2C)c1cnc(Nc2cc(C(F)(F)F)c(Cl)cn2)cn1` (stereo not shown) [Example 254], the EC50 is 1000 to 10000 nM.

In the case of `Cc1ncc(C(=O)N[C@H](C)c2ncc(C(=O)Nc3cc(C(F)(F)F)c(Cl)cn3)s2)n1-c1cccnc1` [Example 162], the EC50 was ≤ 100 nM.

For the compound `CC(NC(=O)c1cc2c(cn1)ncn2C)c1cnc(Nc2cccc(C3(C)CC3)c2)s1` (stereo not shown) [Example 271], the EC50 fell in the range of 100 to 1000 nM.

Consider `CC(NC(=O)c1cccc(CN2CCOCC2)c1)c1ncc(C(=O)Nc2cc(C(F)(F)F)c(Cl)cn2)s1` (stereo not shown) [Example 46], for which the 50% effective concentration (EC50) fell in the range of 1000 to 10000 nM.

For the compound `CC(NC(=O)c1cnn2cc(-c3ccnc(F)c3)ccc12)c1nc(C(=O)Nc2cc(C(F)(F)F)c(Cl)cn2)cs1` (stereo not shown) [Example 326], the 50% effective concentration (EC50) was 100 to 1000 nM.

For `C[C@@H](NC(=O)c1cnc2n1CCCCC2)c1ncc(C(=O)Nc2cc(C(F)(F)F)c(Cl)cn2)s1` [Example 168], the EC50 was ≤ 100 nM.

Consider `CC(NC(=O)c1cnn2cc(-c3ccncc3)ccc12)c1ncc(C(=O)Nc2cc(C(F)(F)F)c(Cl)cn2)s1` (stereo not shown) [Example 321], for which the EC50 was ≤ 100 nM.

Consider `C[C@@H](NC(=O)c1cc2c(cn1)ncn2C1CN(CC(=O)O)C1)c1cnc(Nc2ccc(C(F)(F)F)cc2)s1` [Example 349], for which the EC50 lay within 1000 to 10000 nM.

For `Cc1ncc(C(=O)N[C@H](C)c2ncc(C(=O)Nc3cc(C(F)(F)F)c(Cl)cn3)s2)n1C(C)C` [Example 158], the EC50 was ≤ 100 nM.

For the compound `C[C@@H](NC(=O)c1ccc2c(ccn2C)c1)c1ncc(C(=O)Nc2cc(C(F)(F)F)c(Cl)cn2)s1` [Example 69], the EC50 was in the range of 1000 to 10000 nM.

Regarding `CC(NC(=O)c1cc2c(cn1)ncn2C)c1cnc(Nc2ccc(Cl)cc2)s1` (stereo not shown) [Example 249], the EC50 was in the range of 100 to 1000 nM.

On to `CCn1cncc1C(=O)N[C@H](C)c1ncc(C(=O)Nc2cc(C(F)(F)F)c(Cl)cn2)s1` [Example 145], for which the EC50 is 100 to 1000 nM.

For `CC(NC(=O)c1cnn2cc(Br)ccc12)c1ncc(C(=O)Nc2cc(C(F)(F)F)c(Cl)cn2)s1` (stereo not shown) [Example 319], the concentration for a half-maximal effect (EC50) fell in the range of 100 to 1000 nM.

For the compound `C[C@H](NC(=O)c1cc2c(cn1)ncn2C)c1cnc(Nc2cnc(C(C)(C)C)nc2)s1` [Example 242], the concentration for a half-maximal effect (EC50) was in the range of 1000 to 10000 nM.

As for `C[C@@H](NC(=O)c1cnn2c1CCCC2)c1ncc(C(=O)Nc2cc(C(F)(F)F)c(Cl)cn2)s1` [Example 85], the EC50 is ≤ 100 nM.

As for `C[C@@H](NC(=O)c1cncn1-c1ccccc1)c1ncc(C(=O)Nc2cc(C(F)(F)F)c(Cl)cn2)s1` [Example 144], the EC50 lay in the range of 100 to 1000 nM.

For the compound `CC(NC(=O)c1cnn2c1CCCC2)c1cnc(Nc2ccc(C(F)(F)F)cc2)s1` (stereo not shown) [Example 83], the EC50 is ≤ 100 nM.

Consider `CC(NC(=O)c1cc2c(cn1)ncn2C)c1cnc(Nc2cccc(C(C)(C)C)c2)s1` (stereo not shown) [Example 257], for which the EC50 was ≤ 100 nM.

With `CC(NC(=O)c1cc2c(cn1)ncn2C1CC1)c1cnc(Nc2ccc(C(F)(F)F)cc2)s1` (stereo not shown) [Example 19], the EC50 is ≤ 100 nM.

`C[C@@H](NC(=O)c1cnc(N)n1C)c1ncc(C(=O)Nc2cc(C(F)(F)F)c(Cl)cn2)s1` [Example 147]: the EC50 was ≤ 100 nM.

Turning to `CCn1cnc2cnc(C(=O)NC(C)c3cnc(Nc4ccc(C(F)(F)F)cc4)cn3)nc21` (stereo not shown) [Example 192], the EC50 fell in the range of 100 to 1000 nM.

`C[C@@H](NC(=O)c1cnc2n1CCN2)c1ncc(C(=O)Nc2cc(C(F)(F)F)c(Cl)cn2)s1` [Example 169]: the EC50 was ≤ 100 nM.

On to `CCn1c(C(=O)NC(C)c2ncc(C(=O)Nc3cc(C(F)(F)F)c(Cl)cn3)s2)cnc1C` (stereo not shown) [Example 164], for which the EC50 lay within 100 to 1000 nM.

As to `CC(NC(=O)c1cnc2n1CCNC2)c1cnc(Nc2ccc(C(F)(F)F)cc2)s1` (stereo not shown) [Example 314], the EC50 is 100 to 1000 nM.

As to `CC(NC(=O)c1cc2c(cn1)ncn2C)c1cnc(Nc2cc(CN(C)C)cc(C(F)(F)F)c2)s1` (stereo not shown) [Example 357], the EC50 lay in the range of 1000 to 10000 nM.

As to `CCc1nc2cnc(C(=O)NC(C)c3ncc(Nc4ccc(C(F)(F)F)cc4)s3)cn2c1NC(C)(C)CC(C)(C)C` (stereo not shown) [Example 306], the EC50 is 1000 to 10000 nM.

`C[C@@H](NC(=O)c1cc2nc[nH]c2cn1)c1ncc(C(=O)Nc2cc(C(F)(F)F)c(Cl)cn2)s1` [Example 39]: the EC50 is ≤ 100 nM.

On to `CC(C)Cn1cnc2cnc(C(=O)NC(C)c3cnc(Nc4ccc(C(F)(F)F)cc4)cn3)cc21` (stereo not shown) [Example 79], for which the EC50 lay within 100 to 1000 nM.

On to `C[C@@H](NC(=O)c1ccc2ncsc2c1)c1ncc(C(=O)Nc2cc(C(F)(F)F)c(Cl)cn2)s1` [Example 61], for which the EC50 was ≤ 100 nM.

Consider `CC(NC(=O)c1cc2c(cn1)ncn2C)c1cnc(Nc2cnc(C(C)(C)C)nc2)cn1` (stereo not shown) [Example 256], for which the EC50 was in the range of 100 to 1000 nM.

With `COCCn1c(C(=O)N[C@H](C)c2ncc(C(=O)Nc3cc(C(F)(F)F)c(Cl)cn3)s2)cnc1C` [Example 152], the EC50 is ≤ 100 nM.

Regarding `C[C@@H](NC(=O)c1ccc2[nH]cnc2c1)c1ncc(C(=O)Nc2cc(C(F)(F)F)c(Cl)cn2)s1` [Example 53], the EC50 was in the range of 100 to 1000 nM.

As for `CNc1ncc(C(=O)N[C@H](C)c2ncc(C(=O)Nc3cc(C(F)(F)F)c(Cl)cn3)s2)s1` [Example 104], the EC50 is 100 to 1000 nM.

On to `C[C@@H](NC(=O)c1cnc2n1CCNC2)c1ncc(C(=O)Nc2cc(C(F)(F)F)c(Cl)cn2)s1` [Example 315], for which the EC50 lay in the range of 100 to 1000 nM.

Turning to `C[C@@H](NC(=O)c1cn[nH]c1)c1ncc(C(=O)Nc2cc(C(F)(F)F)c(Cl)cn2)s1` [Example 112], the EC50 fell in the range of 100 to 1000 nM.

As for `C[C@@H](NC(=O)c1cnc2n1CCCCN2)c1ncc(C(=O)Nc2cc(C(F)(F)F)c(Cl)cn2)s1` [Example 171], the 50% effective concentration (EC50) was ≤ 100 nM.

As for `CC(NC(=O)c1cc2c(cn1)ncn2C)c1ncc(C(=O)Nc2cc(C(F)(F)F)c(Cl)cn2)s1` (stereo not shown) [Example 40], the EC50 is ≤ 100 nM.

As for `CC(NC(=O)c1cnn2c1CCCC2)c1ncc(C(=O)Nc2cc(C(F)(F)F)c(Cl)cn2)s1` (stereo not shown) [Example 84], the EC50 was ≤ 100 nM.

For the compound `CCN1CC(n2cnc3cnc(C(=O)NC(C)c4cnc(Nc5ccc(C(F)(F)F)nc5)s4)cc32)C1` (stereo not shown) [Example 294], the EC50 was in the range of 100 to 1000 nM.

Consider `CC(NC(=O)c1cc2c(cn1)ncn2C1CCC1)c1cnc(Nc2ccc(C(F)(F)F)cc2)s1` (stereo not shown) [Example 14], for which the EC50 was ≤ 100 nM.

Consider `CC(NC(=O)c1cc2c(cn1)ncn2C)c1cnc(Nc2cccc(Cl)c2)s1` (stereo not shown) [Example 248], for which the EC50 lay within 100 to 1000 nM.

Consider `C[C@@H](NC(=O)c1cnc2n1CCCC2)c1ncc(C(=O)Nc2cc(C(F)(F)F)c(Cl)cn2)s1` [Example 335], for which the EC50 is ≤ 100 nM.

Take `CC(NC(=O)c1cc2c(cn1)ncn2C)c1cnc(Nc2ccc(Cl)c(C(F)(F)F)c2)cn1` (stereo not shown) [Example 232]: the EC50 was ≤ 100 nM.

Regarding `CC(NC(=O)c1cc2c(cn1)ncn2CC(N)=O)c1cnc(Nc2ccc(C(F)(F)F)cc2)s1` (stereo not shown) [Example 355], the EC50 is 1000 to 10000 nM.

Turning to `C[C@@H](NC(=O)c1cnc2n1CCC2)c1ncc(C(=O)Nc2cc(C(F)(F)F)c(Cl)cn2)s1` [Example 336], the EC50 was ≤ 100 nM.

Turning to `CC(NC(=O)c1cc2c(cn1)ncn2CC(C)(C)C)c1cnc(Nc2ccc(C(F)(F)F)cc2)s1` (stereo not shown) [Example 16], the EC50 fell in the range of 100 to 1000 nM.

In the case of `C[C@@H](NC(=O)c1cnn(-c2ccncc2)c1)c1ncc(C(=O)Nc2cc(C(F)(F)F)c(Cl)cn2)s1` [Example 120], the EC50 lay within 100 to 1000 nM.

Consider `CCn1cnc2cnc(C(=O)NC(C)c3cnc(Nc4ccc(C(F)(F)F)cn4)cn3)cc21` (stereo not shown) [Example 284], for which the EC50 was in the range of 100 to 1000 nM.

Values taken from patent US20120040951A1, “HETEROARYL COMPOUNDS USEFUL AS RAF KINASE INHIBITORS” (priority 2008, published 2012).
